# Assay: Human HepG2 cell viability assay in 384 well format
# Format: toxicity, cell-based
# Parameters: dose 125 nL, time 70.5 hour; cytotoxicity at 70.5 h: concentration not given beside the values
# Conditions: HepG2 cells, read-out: Inhibition
row,Compound,cytotoxicity at 70.5 h
1,O=S(=O)(C1CC1)N1CCC2(CCCN(Cc3ccccn3)C2)CC1,-5.17%
2,O=S(=O)(C1CC1)N1Cc2nccn2CC(Cn2cncn2)C1 (stereo not drawn),-4.4%
3,CC(C)N(C)[C@@H]1CCN(S(C)(=O)=O)[C@H]1Cc1ccccc1,-3.3%
4,c1nc2c(c(N3CCOCC3)n1)CCNCC2,-4.52%
5,c1cncc(COCC2C[C@@H]3OCCN(Cc4cccnc4)[C@H]3C2)c1 (stereo partly drawn),-2.24%
6,Cc1oncc1C(=O)N1CC[C@H]2[C@@H]1CCC(=O)N2CC1CCOCC1,-1.77%
7,COCCN1CCc2ncnc(N(C)C)c2CC1,-10.9%
8,COCCN1CCc2ncnc(NC3CC3)c2CC1,-2.68%
9,COCC1CN(c2ncccn2)Cc2cnn(CC3CC3)c21 (stereo not drawn),-6.23%
10,CC(C)N(C)Cc1cc(=O)n2c(n1)CN(C(=O)c1cnccn1)CCC2,4.66%
11,O=C(O)c1c(-c2ccncc2)ncc2c1CCN(Cc1ccco1)C2,3.95%
12,CCO[C@@H]1CC[C@H]2[C@H]1OCCN2C(=O)c1nn(C)c2ccccc12,2.67%
13,O=C(C1CC=CC1)N1CCCn2nnc(CNc3ncccn3)c2C1,0.685%
14,CC(C)N(C)Cc1cc(=O)n2c(n1)CN(C(=O)c1ccnnc1)CCC2,-2.81%
15,O=C(CC1CC1)N1CCCn2nnc(CNc3ncccn3)c2C1,-1.8%
16,CN1C(=O)C(c2cccnc2)CC12CCN(CCO)CC2 (stereo not drawn),-0.847%
17,Cc1noc(C)c1CN1C[C@H]2CNC[C@H]2C1,-2.52%
18,CCC1=N[C@@]2(CC[C@@H]3CN(C(=O)NCc4ccccc4)C[C@@H]32)C(=O)N1,-7.28%
19,CCn1cc2c(n1)C(COC)CN(Cc1ccccn1)C2 (stereo not drawn),29.7%
20,Cc1ccc(S(=O)(=O)N2CCC3(CC(C(=O)NCC4CC4)=NO3)C2)cc1 (stereo not drawn),-8.09%
21,CC(C)NC(=O)N1CCC2(CC(=O)N(c3cccc(C#N)c3)C2)C1 (stereo not drawn),2.44%
22,O=C(NCc1ccccc1)[C@H]1C[C@@H]2CN(S(=O)(=O)C3CC3)C[C@H]1O2,-10.1%

row,Compound,cytotoxicity at 70.5 h
1,CNC(=O)N1C[C@H]2C[C@H](C(=O)Nc3ccccc3)[C@@H](C1)O2,-7.41%
2,c1cnc(OCc2nnc3n2CCN(CC2CC2)C3)nc1,0.759%
3,C1CC(CN2CCOCC3(CCN(C4CCOCC4)C3)C2)CCO1 (stereo not drawn),-6.07%
4,CCc1ccc(S(=O)(=O)N2CCC3(CC(C(=O)NC)=NO3)C2)cc1 (stereo not drawn),-10.7%
5,O=C(NCC1CC1)[C@H]1C[C@H]2OCC[C@H]2N(Cc2ccsc2)C1,-4.19%
6,CN(C)CC(=O)N1CCC2(CCN(Cc3ccccn3)C2=O)C1 (stereo not drawn),-22.9%
7,O=C1CC(c2ccncc2)C2(CCN(CCO)CC2)N1 (stereo not drawn),-10.4%
8,COCC(=O)N1CCC2(CCN(Cc3ccccn3)CC2)CC1,-23.5%
9,O=C1NCCN(CC2CC2)C12CCN(Cc1ccc3c(c1)OCO3)CC2,41.2%
10,O=C1NCCN(CC2CC2)C12CCN(Cc1ccco1)CC2,12.8%
11,O=C(c1ccco1)N1CCC2(CC1)C(=O)NCCN2CC1CC1,-26.8%
12,CCOC1COC2(CCN(S(=O)(=O)c3cccc(F)c3)CC2)C1 (stereo not drawn),-15.5%
13,CNc1cc(-c2ccncc2)ncn1,23.1%
14,Cc1ncncc1-c1ccnc(N)n1,-2.72%
15,Cc1ncncc1-c1ccnc(N(C)C)n1,-1.27%
16,C[C@@H](CO)Nc1cc(-c2cn[nH]c2)ncn1,-0.96%
17,Cc1ccnc(N2CCC(C(N)=O)CC2)n1,32.9%
18,CC[C@@H](CO)Nc1cc(-c2cn[nH]c2)ncn1,3.42%
19,CCN1CC(=O)c2sc(NC(C)C)nc2C1,5.33%
20,CC(C)(CO)Nc1cc(-c2ccccc2)ncn1,-2.92%
21,CC(=O)NCC[C@H]1CC(C)(C)Oc2ccccc21,-4.17%
22,CC(C)(C)CCNc1nccc(-c2c[nH][nH]c2=O)n1,-4.19%

row,Compound,cytotoxicity at 70.5 h
1,CC(C)Nc1nc2c(s1)C(=O)CN(CC1CC1)C2,2.03%
2,OCCNc1nccc(-c2c[nH]nc2-c2ccco2)n1,4.01%
3,CN(C)c1ncc2c(n1)N(C)CCN(CC1CC1)C2=O,-2.69%
4,COc1ccc2c(c1)[C@@H](CCNC(C)=O)CC(C)(C)O2,-1.01%
5,O=c1[nH][nH]cc1-c1ccnc(NCCc2cccnc2)n1,-2.07%
6,O=c1[nH][nH]cc1-c1ccnc(NCCN2CCCCC2)n1,30.8%
7,NCc1cc(-c2ccccc2)n2nccc2n1,-10.1%
8,COc1ccc(-c2cc(CN)nc3ccnn23)cc1,-12.4%
9,CS(=O)(=O)NC[C@@H]1OC[C@H]2CN(Cc3ccccc3)CC[C@H]21,-1.13%
10,Cc1cccc(CN2CCc3onc(Cn4cccc4)c3C2)n1,-2.56%
11,O=S(=O)(C1CC1)N1CCO[C@@H]2CC(COCc3cccnc3)C[C@H]21 (stereo partly drawn),-2.81%
12,Cn1ccnc1C(=O)N1CCC2(CCN2c2ncccn2)C1 (stereo not drawn),0.472%
13,N#Cc1cccc(CN2CC[C@@H]3CN(c4ncccn4)CCO[C@@H]3C2)c1,21.7%
14,CC(C)n1nc(CN2CCOCC2)c2c1CN(C(=O)c1ccno1)C2,-4.42%
15,CN(C)[C@@H]1CN(C(=O)Cc2cccc(F)c2)[C@@H]2CCCO[C@H]12,-1.9%
16,CN(C)[C@@H]1CN(C(=O)CCc2ccccc2)[C@@H]2CCCO[C@H]12,-3.71%
17,CC(C)n1nc(CN2CCCCC2)c2c1CN(C(=O)c1ccno1)C2,-8.4%
18,c1cc(CN2C[C@H](OCC3CCOCC3)[C@H]3COC[C@H]32)cs1,-7.76%
19,O=C1CC[C@H]2[C@H](CCN2c2ncc(F)cn2)N1c1ccccc1,-5.86%
20,Cc1noc([C@H]2C[C@@H]3CCN(c4nnc(C)s4)C[C@H]3O2)n1,-8.11%
21,CCCC(=O)NC1CCc2c(ccc(=O)n2Cc2csc(C)n2)C1 (stereo not drawn),-12.5%
22,CCc1ncnc2c1CCN(CCOC)CC2,-9.59%

row,Compound,cytotoxicity at 70.5 h
1,c1cnc(N2CCO[C@H]3[C@H](OCC4CC4)CC[C@@H]32)nc1,-7.29%
2,N#Cc1cccc(CN2C[C@@H]3CN(c4ncccn4)C[C@@H]3C2)c1,-6.36%
3,COCCN1CCc2ncnc(-c3ccccc3)c2CC1,-5.42%
4,CC(C)NC(=O)[C@@]12CCO[C@@H]1CCN(Cc1ccco1)C2,1.53%
5,CCOC1COC2(CCN(Cc3cccc(C)n3)CC2)C1 (stereo not drawn),0.953%
6,CC(C)CN1C[C@H]2C[C@H](C(=O)NC3CCC3)[C@@H](C1)O2,-1.14%
7,Cc1noc(C)c1CN1C[C@@H]2CC(F)(F)C[C@@H]2C1,-2.12%
8,CN(C)C(=O)[C@@]12CCO[C@@H]1CCN(Cc1ccc3c(c1)OCO3)C2,1.17%
9,CCOC1COC2(CCN(c3cccc(C)n3)CC2)C1 (stereo not drawn),-2.34%
10,CCN(CC)Cc1cc(=O)n2c(n1)CN(C(=O)c1ccnnc1)CCC2,-3.81%
11,Cc1noc(C)c1CN1C[C@@H]2C[C@@H](C)O[C@@H]2C1,-3.08%
12,CCS(=O)(=O)N1C[C@@H](OCc2cccnc2)[C@H]2OCCC[C@H]21,6.52%
13,CCOCC1CN(S(C)(=O)=O)Cc2cnn(CC3CCOCC3)c21 (stereo not drawn),-0.335%
14,Cn1cc(CN2C[C@@H]3COC[C@]3(CNC(=O)c3ccsc3)C2)cn1,-5.87%
15,CN(C)C(=O)[C@@H]1C[C@@H]2CCN(Cc3ccc4c(c3)OCO4)C[C@@H]2O1,1.53%
16,O=C(c1cnccn1)N1CCCC2(COCCN(CC3CC3)C2)C1 (stereo not drawn),-20.3%
17,Cn1cc(CN2CCCC23CCN(C(=O)c2cccn2C)CC3)cn1,-14.9%
18,Cc1ccc(C(=O)N2Cc3c(CN4CCCCC4)nn(C)c3C2)cc1C,-16.2%
19,O=S(=O)(C1CC1)N1CCC2(CC1)CC(Oc1cccnc1)CO2 (stereo not drawn),-11.5%
20,CCc1ncnc2c1CCN(Cc1ccc(OC)cc1)CC2,-8.97%
21,c1cc(CN2Cc3nnn(CC4CC4)c3C(COCC3CC3)C2)co1 (stereo not drawn),-8.27%
22,COCC1CN(CC2CC2)Cc2nn(C)cc21 (stereo not drawn),13.1%

row,Compound,cytotoxicity at 70.5 h
1,Cc1ccc(N2CCC3(CCCN(C(=O)c4cccnc4)C3)C2)nn1 (stereo not drawn),18.8%
2,CC(=O)N1CC(=O)N(c2ccccc2)CC12CCN(CC1CC1)C2 (stereo not drawn),7.19%
3,CN(C)C[C@H]1OC[C@@H]2CCN(S(=O)(=O)c3cccs3)C[C@@H]21,12.4%
4,CN1CCCn2c(nc(CNC(=O)c3ccsc3)cc2=O)C1,-15.1%
5,CN1CC(=O)N(c2cnn(C)c2)CC12CCN(C(=O)c1ccsc1)C2 (stereo not drawn),-7.55%
6,CN1CC(=O)N(c2ccsc2)CC12CCN(C(=O)c1ccccc1)C2 (stereo not drawn),-12.7%
7,Cc1ccc(CN2CCO[C@H]3[C@H](OCc4cccnc4)CC[C@@H]32)o1,36.8%
8,O=C(O)c1c(-c2cncnc2)ncc2c1CCN(Cc1ccco1)C2,24.2%
9,Cn1nc(CN2CCCC2)c2c1CN(CC1CC1)CC2,2.77%
10,c1coc(CN2CCCn3c(CN4CCOCC4)nnc3C2)c1,1.6%
11,Cc1ccc(CN2CCC3(CC2)CC(c2cccnc2)C(=O)N3C)o1 (stereo not drawn),-2.25%
12,Fc1cnc(N2CCCC3(CCN(Cc4ccsc4)C3)C2)nc1 (stereo not drawn),4.29%
13,c1ccc(CN2CCOCC3(CCN(C4CCOCC4)C3)C2)cc1 (stereo not drawn),-2.29%
14,c1ccc(OCc2nnc3n2CCN(CC2CCOCC2)C3)nc1,-0.459%
15,CN(Cc1ccco1)[C@@H]1CN(Cc2ccc(F)cc2)C[C@@H]2CCCO[C@@H]21,2.25%
16,Cc1cccc(CN2C[C@@H]3COC[C@]3(CNC(=O)c3ccsc3)C2)n1,-8.41%
17,Cc1ccc(CN2CCCn3c(nc(CN4CCCC4)cc3=O)C2)s1,-8.86%
18,Cc1nc(CN2CCO[C@H]3[C@@H](OCc4ccccn4)CC[C@@H]32)cs1,-23.4%
19,COc1ccc(CN2C[C@@H]3COC[C@]3(CN(C)C)C2)cc1,-12.6%
20,CN1CCN(C[C@@H]2OC[C@H]3CN(CCc4ccccc4)CC[C@H]32)CC1,-0.223%
